Source: US20220323599A1, “ANTI-BCMA ANTIBODY CONJUGATE, COMPOSITIONS COMPRISING THE SAME, AND METHODS OF MAKING AND USING THE SAME” (CELGENE CORPORATION, priority 2019, published 2022)

Test system: MM.1S multiple myeloma cells
Assay: Disseminated MM.1S multiple myeloma model in NSG mice
Format: in vivo
Text: Female NOD severe combined immune deficient (SCID) gamma (NSG) mice 8-9 weeks of age were inoculated with 5×10^6 multiple myeloma MM.1S cells into the tail vein. Randomization by body weight and start of treatment was initiated 7 days post tumor inoculation. The treatment groups are outlined in Table 10. […] Groups 1-10 (n=6/group) were monitored for survival endpoint characterized by >20% body weight loss and clinical signs including lethargy, hind limb paralysis or moribundity. Groups 11-20 (n=3/group) were used for bone marrow harvest and analysis of tumor burden on day 28 post tumor cell inoculation. For all groups, body weights were monitored 1-2×/week.
Tumor burden was assessed and quantified by detection of hCD138 positive (hCD138+) cells in the bone marrow. Bone marrow cells from mouse femur and tibia were pooled and assessed for human CD138+ expression using the Alexa Fluor 647 mouse anti-human CD138 clone MI15 (BD Biosciences #562097) according to the manufacturer's protocol. […] Data was analyzed using Flowjo (Tree Star, Inc., Ashland, Oreg.).
Female NOD severe combined immune deficient (SCID) gamma (NSG) mice 9-12 weeks of age were inoculated with 5×10^6 multiple myeloma MM.1S cells into the tail vein. […] Body weights were monitored 1-2×/week. […]

Molecule | mean survival (Example 9, 0.8 mg/kg Velcade q7dx2 IP, vehicle 30.6 days) | effect on survival compared to vehicle control (Example 9, single agent at 3 or 10 mg/kg, single IP)
CC(C)C[C@H](NC(=O)[C@H](Cc1ccccc1)NC(=O)c1cnccn1)B(O)O [Velcade, bortezomib] | 40.6 days | –
Daratumumab: MM standard of care agent, clinical grade Daratumumab | – | no significant effect on survival compared to vehicle control
